From patent publication US10703733B2, “MCL-1 inhibitors” (Gilead Sciences, Inc., priority 2018, dated 2020) come the findings set out here.

Structures are written as SMILES.

The target in this test is MCL-1/Bim interaction (recombinant human MCL-1 protein, residues 171-327; biotinylated human Bim peptide, residues 51-76) (Homo sapiens (Human), UniProt Q07820). As to the kind of experiment: MCL-1/Bim Binding AlphaLISA Assay. The note with it: 0.0625 nM 6xHis-Mcl-1 (171-327), 0.0625 nM biotinylated-Bim peptide. How it is done: MCL-1/Bim Binding AlphaLISA Assay.
MCL-1/Bim interaction (recombinant human MCL-1 protein, residues 171-327; biotinylated human Bim peptide, residues 51-76), sequence (Q07820 171-327): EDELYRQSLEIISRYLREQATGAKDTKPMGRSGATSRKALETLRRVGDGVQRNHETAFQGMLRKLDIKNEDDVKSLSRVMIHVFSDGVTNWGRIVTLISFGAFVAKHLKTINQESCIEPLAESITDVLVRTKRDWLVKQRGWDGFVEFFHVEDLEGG
Inhibition of the MCL-1 and Bim interaction was measured in the following AlphaLISA assay.
Recombinant human MCL-1 protein (C-terminal 6×His Tagged Mcl-1 containing residues 171-327) was generated at Gilead Sciences, Inc. (Foster City, Calif.). A biotinylated peptide derived from human Bim (residues 51-76) was purchased from CPC Scientific (Sunnyvale, Calif.). (CPC 834113). AlphaLISA anti-6His-acceptor beads (AL128R), AlphaScreen Streptavidin donor beads (6760002B), and Proxiplate-384 Plus (6008289) were purchased from PerkinElmer.
The AlphaLISA assay was performed in a 384-well Proxiplate in a total volume of […]. The reaction mixture contained 0.0625 nM 6×His-Mcl-1 (171-327), 0.0625 nM biotinylated-Bim peptide, 10 μg/mL AlphaLISA anti-6×His-AlphaLISA acceptor beads, […] AlphaScreen streptavidin donor beads, and serially diluted test compounds in the binding buffer (20 mM Hepes, pH 7.5 (Teknova H1035); 150 mM NaCl (Promega V4221); 0.002% Brij 35 (Thermo Scientific 20150); 1 mM Dithiothreitol (DTT) Solution (Affymetrix 70726); 0.01% BSA (BioLabs B9000S)). 1,000×test compounds were pre-spotted onto 384-well Proxiplate (Labcyte Echo) by Echo 555 Liquid Handler (Labcyte Inc., San Jose, Calif.) followed by incubation of 5 μl Mcl-1(171-327) for 1 hour. Then 5 μL Bim (51-76) was added and incubated for 2 hours. Five μL AlphaLISA anti-6His-AlphaLISA acceptor beads were then added for 1 hour followed by addition of 5 μL AlphaScreen streptavidin donor beads for 1 hour. The reaction plates were then read on an Envision multimode reader (PerkinElmer) using AlphaScreen settings. […] Percent inhibition was calculated as shown below: % Inhibition=100%*(Well−Neg)/(Pos−Neg) Neg: negative control, DMSO Pos: positive control, no Mcl-1 protein, no biotinylated-Bim peptide
A general note: In Alpha technology, singlet oxygen from a donor bead excites a nearby acceptor bead.
In the case of `CO[C@H]1/C=C/C[C@H](C)C[S@@](=O)(NC(=O)N[C@H]2[C@@H]3COC[C@@H]32)=NC(=O)c2ccc3c(c2)N(C[C@@H]2CC[C@H]21)C[C@@]1(CCCc2cc(Cl)ccc21)CO3` [Example 206], the concentration for half-maximal inhibition (IC50) was found to be 47 pM.

On to `COC[C@H]1Cn2cc(C(=O)N[S@@]3(=O)=NC(=O)c4ccc5c(c4)N(C[C@@H]4CC[C@H]4[C@@H](OC)/C=C/C[C@H](C)[C@H]3C)C[C@@]3(CCCc4cc(Cl)ccc43)CO5)cc2CO1` [Example 215], for which the IC50 came out at 203 pM.

As to `COCCOc1nn(C)cc1C(=O)N[S@@]1(=O)=NC(=O)c2ccc3c(c2)N(C[C@@H]2CC[C@H]2[C@@H](OC)/C=C/C[C@H](C)C1)C[C@@]1(CCCc2cc(Cl)ccc21)CO3` [Example 216], the IC50 was 196 pM.

For `C[C@@H]1[C@@H](C)C/C=C/[C@H](O)[C@@H]2CC[C@H]2CN2C[C@@]3(CCCc4cc(Cl)ccc43)COc3ccc(cc32)C(=O)N=[S@]1(=O)NC(=O)c1cc2n(c1)CC1(COC1)OC2` [Example 239], the IC50 was 42 pM.

For `CO[C@H]1/C=C/C[C@H](C)C[S@@](=O)(NC(=O)c2cc(CN(C)C3CCOCC3)n(C)c2)=NC(=O)c2ccc3c(c2)N(C[C@@H]2CC[C@H]21)C[C@@]1(CCCc2cc(Cl)ccc21)CO3` [Example 241], the concentration for half-maximal inhibition (IC50) turned out to be 87 pM.

On to `COCC1(C)Cn2cc(C(=O)N[S@@]3(=O)=NC(=O)c4ccc5c(c4)N(C[C@@H]4CC[C@H]4[C@@H](O)/C=C/C[C@H](C)[C@H]3C)C[C@@]3(CCCc4cc(Cl)ccc43)CO5)cc2CO1` (some centres unmarked) [Example 255], for which the IC50 came out at 96 pM.

As for `C[C@@H]1[C@@H](C)C/C=C/[C@H](O)[C@@H]2CC[C@H]2CN2C[C@@]3(CCCc4cc(Cl)ccc43)COc3ccc(cc32)C(=O)N=[S@]1(=O)NC(=O)c1cc2n(c1)CC(C)(CN1CCOCC1)OC2` (some centres unmarked) [Example 259], the IC50 is 98 pM.

`C[C@@H]1[C@@H](C)C/C=C/[C@H](O)[C@@H]2CC[C@H]2CN2C[C@@]3(CCCc4cc(Cl)ccc43)COc3ccc(cc32)C(=O)N=[S@]1(=O)NC(=O)N[C@@H]1C[C@H]1C(F)F` [Example 260]: the IC50 amounted to 61 pM.

In the case of `C[C@@H]1[C@@H](C)C/C=C/[C@H](O)[C@@H]2CC[C@H]2CN2C[C@@]3(CCCc4cc(Cl)ccc43)COc3ccc(cc32)C(=O)N=[S@]1(=O)NC(=O)c1cc2n(c1)CC(C)(C)OC2` [Example 264], the IC50 stood at 263 pM.

Consider `COc1nn(C)cc1C(=O)N[S@@]1(=O)=NC(=O)c2ccc3c(c2)N(C[C@@H]2CC[C@H]2[C@@H](OC)/C=C/[C@H](O)[C@H](C)C1)C[C@@]1(CCCc2cc(Cl)ccc21)CO3` [Example 279], for which the IC50 came to 41 pM.

Consider `COCCO[C@H]1/C=C/[C@H](OC)[C@@H]2CC[C@H]2CN2C[C@@]3(CCCc4cc(Cl)ccc43)COc3ccc(cc32)C(=O)N=[S@](=O)(NC(=O)c2cn(C)nc2OC)C[C@H]1C` [Example 291], for which the IC50 worked out at 39 pM.

With `CO[C@H]1/C=C/C[C@H](C)[C@@H](C)[S@@](=O)(NC(=O)COC2COC2)=NC(=O)c2ccc3c(c2)N(C[C@@H]2CC[C@H]21)C[C@@]1(CCCc2cc(Cl)ccc21)CO3` [Example 407], the concentration for half-maximal inhibition (IC50) is 113 pM.

For `COc1nnc(C)cc1C(=O)N[S@@]1(=O)=NC(=O)c2ccc3c(c2)N(C[C@@H]2CC[C@H]2[C@@H](OC)/C=C/C[C@H](C)C1)C[C@@]1(CCCc2cc(Cl)ccc21)CO3` [Example 460], the IC50 came to 89 pM.

As to `CO[C@H]1/C=C/C[C@H](C)C[S@@](=O)(NC(=O)N2CC(Oc3ccccn3)C2)=NC(=O)c2ccc3c(c2)N(C[C@@H]2CC[C@H]21)C[C@@]1(CCCc2cc(Cl)ccc21)CO3` [Example 463], the IC50 came to 219 pM.

What is called IC50 is the concentration needed to halve the response being measured.
